This passage reports IC50 and GI50 results from patent US20250179059A1 (The Regents of the University of California, priority 2021, published 2025).

Broadly, the IC50 is the midpoint of a concentration-inhibition curve. Usually GI50 stands for the concentration giving 50% growth inhibition. A lower GI50 goes with greater sensitivity of the cells.

Assay [1] deals with T1, human BRD4 bromodomain II (Homo sapiens, UniProt O60885).
T1 construct: human BRD4 bromodomain II [based on Genbank NM_058243, residues 349-460]; host or cells: E. coli
The assay can be described thus: Bromodomain binding assay (AlphaScreen), BRD4 BDII. In a few lines: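 First, His6-tagged BRD4 bromodomain (BDI residues 44-170 or BDII residues 349-460) is incubated with compound for 30 min at room temperature. Next the biotinylated H4 peptide is added for 30 min, then donor and acceptor beads, with 60 min in the dark before AlphaScreen reading and IC50 fitting.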

Assay [2] has as its system human SKM-1 acute myeloid leukemia cells. The assay can be described thus: SKM-1 antiproliferation cell-based assay (ATPlite). To be noted: Homo sapiens. In outline:
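Log-phase cells in RPMI 1640/15% FBS were seeded at 34722 cells/mL and exposed for 4 days to nine-concentration DMSO serial dilutions in triplicate. Viability was read as ATP luminescence (ATPlite 1step), and IC50 values came from variable-slope non-linear regression.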
On the technique in general: Cellular ATP, detected with luciferase, serves as a proxy for viable cell number.

The mark [3] stands for this setting: AlphaScreen assay, Table C2, read-out: BRD4 BDII IC50.
[4] abbreviates: SKM-1, 96 h, SKM-1 antiproliferation assay, 4 days, Table C2.
Setting [5] is: BRD4 BDII AlphaScreen assay, read-out: BRD4 BD2 IC50.
Setting [6] is: SKM-1, SKM-1 antiproliferation assay.

Where two headings read alike, the source gives them in different places.

`Cn1ccn(-c2ccc(-c3cc(F)cc(-c4ccnc(N5CCC6(CCCO6)C5)c4)c3O)cc2Cl)c1=O` (stereo not shown) [Example 683, 1-(3′-(2-(1-oxa-7-azaspiro[4.4]nonan-7-yl)pyridin-4-yl)-3-chloro-5′-fluoro-2′-hydroxy-[1,1′-biphenyl]-4-yl)-3-methyl-1H-imidazol-2(3H)-one]: the IC50 in assay [1] (setting [3]) was 0.01 to 1 nM. In addition, the GI50 in assay [2] (setting [4]) was in the range of 30 to 300 nM.

In the case of `CC(C)[C@@H]1CN(c2cc(-c3cc(F)cc(-c4ccc(-n5ccn(C)c5=O)c(Cl)c4)c3O)ccn2)CCN1` [Example 667, (R)-1-(3-chloro-5′-fluoro-2′-hydroxy-3′-(2-(3-isopropylpiperazin-1-yl)pyridin-4-yl)-[1,1′-biphenyl]-4-yl)-3-methyl-1H-imidazol-2(3H)-one], the half-maximal inhibitory concentration (IC50) in assay [1] (setting [3]) is 0.01 to 1 nM. Further, the GI50 in assay [2] (setting [4]) is 0.3 to 30 nM.

As to `Cn1ccn(-c2ccc(-c3cc(F)cc(-c4cc(-c5cn[nH]c5)nc(N5CCNCC5)c4)c3O)cc2Cl)c1=O` [Example 552, 1-(3-chloro-5′-fluoro-2′-hydroxy-3′-(2-(piperazin-1-yl)-6-(1H-pyrazol-4-yl)pyridin-4-yl)-[1,1′-biphenyl]-4-yl)-3-methyl-1H-imidazol-2(3H)-one], in assay [1] (setting [3]), the IC50 fell in the range of 0.01 to 1 nM. The GI50 in assay [2] (setting [4]) lay in the range of 0.3 to 30 nM.

`Cn1ccn(-c2ccc(-c3cc(F)cc(-c4ccnc(N5CCN(C[C@H](O)CO)CC5)c4)c3O)cc2Cl)c1=O` [Example 621, (S)-1-(3-chloro-3′-(2-(4-(2,3-dihydroxypropyl)piperazin-1-yl)pyridin-4-yl)-5′-fluoro-2′-hydroxy-[1,1′-biphenyl]-4-yl)-3-methyl-1H-imidazol-2(3H)-one]: the half-inhibitory concentration (IC50) in assay [1] (setting [3]) fell in the range of 0.01 to 1 nM. Besides, in assay [2] (setting [4]), the GI50 lay in the range of 0.3 to 30 nM.

Regarding `CN1CCCC12CCN(c1cncc(-c3cc(F)cc(-c4ccc(-n5ccn(C)c5=O)c(Cl)c4)c3O)c1)C2` (stereo not shown) [Example 700, 1-(3-chloro-5′-fluoro-2′-hydroxy-3′-(5-(1-methyl-1,7-diazaspiro[4.4]nonan-7-yl)pyridin-3-yl)-[1,1′-biphenyl]-4-yl)-3-methyl-1H-imidazol-2(3H)-one], the IC50 in assay [1] (setting [3]) was 0.01 to 1 nM. For the same compound, the GI50 in assay [2] (setting [4]) was in the range of 0.3 to 30 nM.

For the compound `Cc1cc(-c2cc(F)cc(-c3ccc(-n4ccn(C)c4=O)c(Cl)c3)c2O)cc(N2CCN(C(C)C)CC2)n1` [Example 703, 1-(3-chloro-5′-fluoro-2′-hydroxy-3′-(2-(4-isopropylpiperazin-1-yl)-6-methylpyridin-4-yl)-[1,1′-biphenyl]-4-yl)-3-methyl-1H-imidazol-2(3H)-one], the IC50 in assay [1] (setting [3]) was in the range of 1 to 10 nM. This compound yielded a GI50 in assay [2] (setting [4]) of 0.3 to 30 nM.

`Cn1ccn(-c2ccc(-c3cc(F)cc(-c4ccc(F)c(N5CC[C@@](C)(O)C5)c4)c3O)cc2Cl)c1=O` [Example 775, (R)-1-(3-chloro-4″,5′-difluoro-2′-hydroxy-3″-(3-hydroxy-3-methylpyrrolidin-1-yl)-[1,1′:3′,1″-terphenyl]-4-yl)-3-methyl-1H-imidazol-2(3H)-one]: the half-maximal inhibitory concentration (IC50) in assay [1] (setting [3]) is 1 to 10 nM. The compound also had a GI50 in assay [2] (setting [4]) of 30 to 300 nM.

Take `Cn1ccn(-c2ccc(-c3cc(F)cc(-c4ccnc(N5CC(O)C6(CC6)C5)c4)c3O)cc2Cl)c1=O` (stereo not shown) [Example 743, 1-(3-chloro-5′-fluoro-2′-hydroxy-3′-(2-(7-hydroxy-5-azaspiro[2.4]heptan-5-yl)pyridin-4-yl)-[1,1′-biphenyl]-4-yl)-3-methyl-1H-imidazol-2(3H)-one]: the IC50 in assay [1] (setting [3]) lay in the range of 0.01 to 1 nM. For the same compound, the GI50 in assay [2] (setting [4]) is 0.3 to 30 nM.

Turning to `CC(=O)Nc1cc(-c2cc(F)cc(-c3ccc(-n4ccn(C)c4=O)c(Cl)c3)c2O)cc(N2CC[C@H](N(C)C)C2)n1` [Example 515, (S)-N-(4-(3′-chloro-5-fluoro-2-hydroxy-4′-(3-methyl-2-oxo-2,3-dihydro-1H-imidazol-1-yl)-[1,1′-biphenyl]-3-yl)-6-(3-(dimethylamino)pyrrolidin-1-yl)pyridin-2-yl)acetamide], the IC50 in assay [1] (setting [3]) was 1 to 10 nM. Further, the GI50 in assay [2] (setting [4]) lay within 0.3 to 30 nM.

Take `COc1cc(-c2cc(F)cc(-c3cccc(N4CCN(C(C)(C)C)CC4)c3)c2O)cc(Cl)c1-n1ccn(C)c1=O` [Example 910, 1-(3″-(4-(tert-butyl)piperazin-1-yl)-3-chloro-5′-fluoro-2′-hydroxy-5-methoxy-[1,1′:3′,1″-terphenyl]-4-yl)-3-methyl-1H-imidazol-2(3H)-one]: the IC50 in assay [1] (setting [5]) was 10 to 100 nM. Moreover, in assay [2] (setting [6]), the 50% growth inhibitory concentration (GI50) was in the range of 30 to 300 nM.

As for `Cn1ccn(-c2ccc(-c3cc(F)cc(-c4cccc(N5CCN(C6CCC6)CC5)c4)c3O)cc2Cl)c1=O` [Example 868], the IC50 in assay [1] (setting [5]) was in the range of 1 to 10 nM. Moreover, the GI50 in assay [2] (setting [6]) was 0.3 to 30 nM.

For the compound `[2H]C([2H])([2H])Oc1ncc(-c2cc(F)cc(-c3ccc(-n4ccn(C)c4=O)c(Cl)c3)c2O)cc1N1CCN(C(C)(C)C)CC1` [Example 926, 1-(3′-(5-(4-(tert-Butyl)piperazin-1-yl)-6-(methoxy-d3)pyridin-3-yl)-3-chloro-5′-fluoro-2′-hydroxy-[1,1′-biphenyl]-4-yl)-3-methyl-1,3-dihydro-2H-imidazol-2-one], the concentration for half-maximal inhibition (IC50) in assay [1] (setting [5]) was in the range of 0.01 to 1 nM. Moreover, the GI50 in assay [2] (setting [6]) fell in the range of 0.3 to 30 nM.

As to `Cc1cc(-c2cccc(N3CCN(C(C)(C)C)CC3)c2)c(O)c(-c2ccc(-n3ccn(C)c3=O)c(Cl)c2)n1` [Example 917, 1-(4-(4-(3-(4-(tert-Butyl)piperazin-1-yl)phenyl)-3-hydroxy-6-methylpyridin-2-yl)-2-chlorophenyl)-3-methyl-1H-imidazol-2(3H)-one], the 50% inhibitory concentration (IC50) in assay [1] (setting [5]) lay within 1 to 10 nM. Besides, the GI50 in assay [2] (setting [6]) lay in the range of 30 to 300 nM.

Consider `Cc1cc(-c2ccc(-n3ccn(C)c3=O)c(Cl)c2)c(O)c(-c2cc(N3CCN(C(C)(C)C)CC3)c(=O)n(C)c2)n1` [Example 1011, 5′-(4-(tert-butyl)piperazin-1-yl)-4-(3-chloro-4-(3-methyl-2-oxo-2,3-dihydro-1H-imidazol-1-yl)phenyl)-3-hydroxy-1′,6-dimethyl-[2,3′-bipyridin]-6′(1′H)-one], for which the IC50 in assay [1] (setting [5]) was 10 to 100 nM. Besides, the GI50 in assay [2] (setting [6]) lay within 0.3 to 30 nM.

Turning to `Cn1ccn(-c2ccc(-c3cc(F)cc(-c4ccnc(N5CCN(CC6CC6)CC5)c4)c3O)cc2Cl)c1=O` [Example 470, 1-(3-chloro-3′-(2-(4-(cyclopropylmethyl)piperazin-1-yl)pyridin-4-yl)-5′-fluoro-2′-hydroxy-[1,1′-biphenyl]-4-yl)-3-methyl-1H-imidazol-2(3H)-one], the 50% inhibitory concentration (IC50) in assay [1] (setting [3]) lay within 1 to 10 nM. Also, the GI50 in assay [2] (setting [4]) lay in the range of 0.3 to 30 nM.

As to `Cn1ccn(-c2ccc(-c3cc(F)cc(-c4ccnc(N5CC(N)C6(CC6)C5)c4)c3O)cc2Cl)c1=O` (stereo not shown) [Example 755, 1-(3′-(2-(7-amino-5-azaspiro[2.4]heptan-5-yl)pyridin-4-yl)-3-chloro-5′-fluoro-2′-hydroxy-[1,1′-biphenyl]-4-yl)-3-methyl-1H-imidazol-2(3H)-one], the half-maximal inhibitory concentration (IC50) in assay [1] (setting [3]) was 0.01 to 1 nM. The GI50 in assay [2] (setting [4]) is 0.3 to 30 nM.

Turning to `Cc1cc(-c2ccc(-n3ccn(C)c3=O)c(Cl)c2)c(O)c(-c2ccnc(N3CC[C@](C)(O)C3)c2)n1` [Example 995, (S)-1-(2-chloro-4-(3-hydroxy-2′-(3-hydroxy-3-methylpyrrolidin-1-yl)-6-methyl-[2,4′-bipyridin]-4-yl)phenyl)-3-methyl-1H-imidazol-2(3H)-one], the IC50 in assay [1] (setting [5]) was 1 to 10 nM. Also, the GI50 in assay [2] (setting [6]) is 0.3 to 30 nM.

As for `CC(C)N1CCCC12CCN(c1cccc(-c3cc(F)cc(-c4ccc(-n5ccn(C)c5=O)c(Cl)c4)c3O)c1)C2` (stereo not shown) [Example 909, 1-(3-chloro-5′-fluoro-2′-hydroxy-3″-(1-isopropyl-1,7-diazaspiro[4.4]nonan-7-yl)-[1,1′:3′,1″-terphenyl]-4-yl)-3-methyl-1H-imidazol-2(3H)-one], the IC50 in assay [1] (setting [5]) lay in the range of 1 to 10 nM. In assay [2] (setting [6]), this compound had a GI50 of 30 to 300 nM.

For the compound `Cn1ccn(-c2ccc(-c3cc(F)cc(-c4cncc(N5CC6CNC(C6)C5)c4)c3O)cc2Cl)c1=O` (stereo not shown) [Example 572], in assay [1] (setting [3]), the IC50 lay in the range of 0.01 to 1 nM. For the same compound, the GI50 in assay [2] (setting [4]) lay in the range of 0.3 to 30 nM.

As to `C[C@@H]1CN(c2cc(-c3cccc(-c4ccc(N5CCN(C)C5=O)c(F)c4)c3O)ccn2)CCN1` [Example 289, (R)-1-(3-fluoro-2′-hydroxy-3′-(2-(3-methylpiperazin-1-yl)pyridin-4-yl)-[1,1′-biphenyl]-4-yl)-3-methylimidazolidin-2-one], the half-inhibitory concentration (IC50) in assay [1] (setting [3]) was 1 to 10 nM. This compound showed a concentration for 50% growth inhibition (GI50) in assay [2] (setting [4]) of 30 to 300 nM.

For `CC(=O)NC1CN(c2cc(-c3cc(F)cc(-c4ccc(-n5ccn(C)c5=O)c(Cl)c4)c3O)ccn2)CC12CC2` (stereo not shown) [Example 767, N-(5-(4-(3′-chloro-5-fluoro-2-hydroxy-4′-(3-methyl-1-oxo-2,3-dihydro-1H-imidazol-1-yl)-[1,1′-biphenyl]-3-yl)pyridin-2-yl)-5-azaspiro[2.4]heptan-7-yl)acetamide], the IC50 in assay [1] (setting [3]) was 0.01 to 1 nM. Further, the 50% growth inhibitory concentration (GI50) in assay [2] (setting [4]) was 0.3 to 30 nM.

As to `Cn1ccn(-c2ccc(-c3cc(F)cc(-c4ccnc(N5CCN(C67CC(C6)C7)CC5)c4)c3O)cc2Cl)c1=O` [Example 662, 1-(3′-(2-(4-(bicyclo[1.1.1]pentan-1-yl)piperazin-1-yl)pyridin-4-yl)-3-chloro-5′-fluoro-2′-hydroxy-[1,1′-biphenyl]-4-yl)-3-methyl-1H-imidazol-2(3H)-one], the IC50 in assay [1] (setting [3]) is 1 to 10 nM. Besides, in assay [2] (setting [4]), the GI50 was in the range of 30 to 300 nM.

With `Cn1ccn(-c2ccc(-c3cc(F)cc(-c4ccnc(N5CC6NCCOC6C5)c4)c3O)cc2Cl)c1=O` (stereo not shown) [Example 648, 1-(3-chloro-5′-fluoro-3′-(2-(hexahydropyrrolo[3,4-b][1,4]oxazin-6(2H)-yl)pyridin-4-yl)-2′-hydroxy-[1,1′-biphenyl]-4-yl)-3-methyl-1H-imidazol-2(3H)-one], the IC50 in assay [1] (setting [3]) was in the range of 0.01 to 1 nM. In addition, in assay [2] (setting [4]), the GI50 fell in the range of 0.3 to 30 nM.
